Laboratory results as given in PMC8138767, “Intrinsically disordered substrates dictate SPOP subnuclear localization and ubiquitination activity” (The Journal of Biological Chemistry, 2021).
Where “and” joins values, the source holds several entries; their conditions need not be identical. Equal values may be shown once. Where no end group is shown, it is not given here.

How the values were obtained:
[1] = target: f-Puc (fluorescein-labeled Puc peptide); test: fluorescence polarisation; direct fluorescence anisotropy: SPOP construct 0.001-300 μM added to 40 nM f-Puc; 50 mM sodium phosphate pH 6.5, 50 mM NaCl, 5 mM DTT, 1% BSA, 0.01% Triton X-100
[2] = test system: SPOP–MATH substrate-binding groove; test: 1H,15N HSQC NMR titration of 15N–SPOP–MATH with Pdx1 peptides; design: species or system human
Experimental: NMR data collection and analysis
NMR data were collected on Bruker Avance III 500, 600, or 850 MHz spectrometers equipped with TCI triple-resonance cryoprobes. All data collection and initial processing were carried out in TopSpin (Bruker). NMR experiments on all proteins were collected in 50 mM sodium phosphate, pH 6.5, 50 mM sodium chloride, 5 mM DTT, 0.01% sodium azide, and 5% D2O unless otherwise noted.
Addition of Pdx1 peptides into ^15N–SPOP–MATH was monitored by sensitivity-enhanced ^1H, ^15N HSQC. The peptides were mixed in a 4:1 peptide:SPOP mole ratio with between 0.1 and 0.2 mM ^15N–SPOP–MATH. Each experiment consisted of 16 scans and 2048 × 256 complex data points. Spectral comparison was carried out in NMRFAM-Sparky using the assigned ^15N-SPOP-MATH spectrum as a reference. Integrated peak intensities before and after the addition of peptide were compared and normalized within each dataset, and the percent change (1 − Ibound/Iunbound) was plotted on the surface of published SPOP–MATH cocrystal structures (PDB IDs: 3IVV or 6F8F) ([25], [33]) using PyMol (PyMOL Molecular Graphics System, Version 2.1.1, Schrödinger, LLC). In each case, surface coloring corresponds to thresholds of intensity change, where the greatest resonance intensity changes are reflected by the lightest color. […]

[3] = target: f-Puc, fluorescein-labeled peptide of the SPOP substrate Puc (residues 91-106); test: fluorescence polarisation; direct fluorescence anisotropy titration: SPOP construct (0.001-300 μM) added to 40 nM f-Puc; 50 mM sodium phosphate pH 6.5, 50 mM NaCl, 5 mM DTT, 1% BSA, 0.01% Triton X-100
[4] = target: T1, SPOP–MATH (residues 28–166) (Homo sapiens, UniProt O43791); test: Competition fluorescence anisotropy, displacement of f-Puc from SPOP–MATH; type: binding; settings: competition FA; 40 nM f-Puc, 6 μM SPOP–MATH; 50 mM sodium phosphate pH 6.5, 50 mM NaCl, 5 mM DTT, 1% BSA, 0.01% Triton X-100; complete competitive binding model; ± standard deviation of three independent replicates (Table S4)
T1 construct: glutathione S-transferase (GST) (N, cleaved yes); 6X His (N, cleaved yes); made in house; host or cells: E. coli BL-21(DE3)
T1 sequence (O43791 28-166): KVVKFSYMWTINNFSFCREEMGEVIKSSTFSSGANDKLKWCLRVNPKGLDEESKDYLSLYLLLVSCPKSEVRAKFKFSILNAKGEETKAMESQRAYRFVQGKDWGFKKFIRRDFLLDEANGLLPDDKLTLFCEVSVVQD
From the text: An Escherichia coli codon-optimized DNA sequence encoding amino acids 205 to 283 of the human Pdx1 sequence (Pdx1-C) in the multiple cloning site of pET49b(+) was purchased from GeneArt (Thermo Fisher). The pET49b(+) backbone encodes for N-terminal glutathione S-transferase and 6X His tags, followed by a 3C protease recognition motif. In all experiments described herein, a mutant containing an exogenous tryptophan at the N terminus of the human Pdx1-C sequence was used for the purposes of quantitation. Mutations in Pdx1-C were generated by Q5 site-directed mutagenesis (New England Biolabs) with primers designed on NEBbasechanger.com according to the manufacturer protocol. Similarly, an E. coli–optimized DNA sequence encoding residues 28 to 166 of human SPOP (SPOP–MATH) was purchased in pET49b(+) from GeneArt. […] A plasmid encoding His–SUMO–SPOP human residues 28 to 359 harboring a tobacco etch virus protease recognition site directly N terminal to the beginning of the native SPOP protein sequence was generated previously ([21]).
All FA experiments were conducted in 50 mM sodium phosphate, pH 6.5, 50 mM sodium chloride, 5 mM DTT, 1% BSA, and 0.01% Triton X-100. In all experiments, the source of fluorescence signal was f-Puc purchased from GenScript, at a final concentration of 40 nM. For direct FA measurements, SPOP–MATH or SPOP28–359 of concentrations between 0.001 and 300 μM was added to wells of 96- or 384-well plates containing f-Puc and buffer. For competition-mode experiments, serial dilutions of each competitor (Pdx1 peptide or recombinant protein) were prepared ranging from ∼0.01 μM to ∼2 mM (concentration range varied based on peptide solubility) in wells of 96- or 384-well plates containing 40 nM f-Puc and 6 μM SPOP–MATH or SPOP28–359. The fluorescence polarization of each well was measured (from which FA was calculated) using either a TECAN Infinite M1000 Pro or BioTek Synergy 4 fluorometer. All experiments were performed with at least three technical replicates. FA data points were fit to a complete competitive binding model ([23]) to determine dissociation constants using in-house Python scripts (see Quantification and statistical analysis).
All titrations were performed in triplicate for rigor. Direct FA titrations were performed to determine the dissociation constants of the fluorescent probe toward SPOP constructs. Direct titration data were fit according to equation 6 in ([54]). Competition mode titration data were fit according to the fitting function in ([23]). Average dissociation constants and standard error from the mean for all constructs from competition experiments may be found in Table S4. The python scripts used in plotting and fitting may be found at https://github.com/idpemery/spop-pdx1.

[5] = target: T2, SPOP28–359 (Homo sapiens, UniProt O43791); test: Competition fluorescence anisotropy, displacement of f-Puc from oligomeric SPOP28–359; type: binding; settings: competition FA; 40 nM f-Puc, 6 μM SPOP28–359; 50 mM sodium phosphate pH 6.5, 50 mM NaCl, 5 mM DTT, 1% BSA, 0.01% Triton X-100; complete competitive binding model; ± standard deviation of three independent replicates (Table S4)
T2 construct: A plasmid encoding His–SUMO–SPOP human residues 28 to 359; His-SUMO (N, cleaved yes); made in house; host or cells: E. coli Rosetta BL-21(DE3)
T2 sequence (O43791 28-359): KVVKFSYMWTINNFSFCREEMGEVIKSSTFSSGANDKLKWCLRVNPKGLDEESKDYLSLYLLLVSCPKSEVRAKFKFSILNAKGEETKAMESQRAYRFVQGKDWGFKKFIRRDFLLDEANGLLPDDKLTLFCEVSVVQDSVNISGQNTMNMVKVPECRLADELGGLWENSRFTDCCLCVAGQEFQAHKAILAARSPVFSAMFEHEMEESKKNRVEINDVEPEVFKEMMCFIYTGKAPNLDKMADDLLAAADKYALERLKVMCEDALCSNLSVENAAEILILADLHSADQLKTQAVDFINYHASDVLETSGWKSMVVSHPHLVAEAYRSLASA
From the text: An Escherichia coli codon-optimized DNA sequence encoding amino acids 205 to 283 of the human Pdx1 sequence (Pdx1-C) in the multiple cloning site of pET49b(+) was purchased from GeneArt (Thermo Fisher). The pET49b(+) backbone encodes for N-terminal glutathione S-transferase and 6X His tags, followed by a 3C protease recognition motif. In all experiments described herein, a mutant containing an exogenous tryptophan at the N terminus of the human Pdx1-C sequence was used for the purposes of quantitation. Mutations in Pdx1-C were generated by Q5 site-directed mutagenesis (New England Biolabs) with primers designed on NEBbasechanger.com according to the manufacturer protocol. […]
All FA experiments were conducted in 50 mM sodium phosphate, pH 6.5, 50 mM sodium chloride, 5 mM DTT, 1% BSA, and 0.01% Triton X-100. In all experiments, the source of fluorescence signal was f-Puc purchased from GenScript, at a final concentration of 40 nM. […] The fluorescence polarization of each well was measured (from which FA was calculated) using either a TECAN Infinite M1000 Pro or BioTek Synergy 4 fluorometer. […] FA data points were fit to a complete competitive binding model ([23]) to determine dissociation constants using in-house Python scripts (see Quantification and statistical analysis). […]

Sequence of SPOP28-359 (human SPOP residues 28-359) (O43791 28-359): as above
Sequence of SPOP-MATH (human SPOP residues 28-166) (O43791 other isoform, or with tags, fused parts or gaps): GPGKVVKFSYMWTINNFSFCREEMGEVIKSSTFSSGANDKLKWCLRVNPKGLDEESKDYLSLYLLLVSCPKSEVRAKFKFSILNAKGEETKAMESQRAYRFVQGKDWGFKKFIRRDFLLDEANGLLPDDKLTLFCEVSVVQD
Sequence of SPOP–MATH (human SPOP residues 28–166) (O43791 other isoform, or with tags, fused parts or gaps): as above

Substance “SPOP–MATH (human SPOP residues 28–166) (from UniProt O43791 28-166) (domain or fragment)” has a Kd [1] of 2600 nM.
“Ac-GVAEPEQDCAVTSGEELLALPP [Pdx1–SBM1, SB motif 1 peptide of Pdx1 (residues 224–236)]” was tested, and the “relative SB affinity from mixed-peptide NMR” value ([2]; SBM1 and SBM2 peptides added to 15N-SPOP-MATH in equimolar ratios) was “higher SB affinity of Pdx1–SBM1 than Pdx1–SBM2” and the “HSQC spectral changes in SPOP–MATH” value ([2]; peptide:15N-SPOP–MATH 4:1, 0.1–0.2 mM 15N–SPOP–MATH, 50 mM sodium phosphate pH 6.5, 50 mM NaCl, 5 mM DTT) was “spectral changes are primarily localized to the substrate-binding groove”.
“SPOP28-359 (human SPOP residues 28-359) (from UniProt O43791 28-359) (domain or fragment)” was tested, and the Kd [3] was 2550 nM and 2620 nM.
“ENLACDEVTSTTSSST [Puc, reference compound]” was tested, and the Kd [4] was 2600 ± 400 nM and the Kd [5] was 2600 ± 1000 nM.
In the case of “SPOP-MATH (human SPOP residues 28-166) (from UniProt O43791 28-166) (domain or fragment)”, the Kd [3] is reported as 2620 nM and 2550 nM.
